Test results: patent publication US5770574A, “Long-chain alkylamides of amino acids and peptides with anti-proliferative and anti-inflammatory properties” (ASTA Medica Aktiengesellschaft, priority 1994, dated 1998)

What was measured:
[1] = test system: L1210 mouse leucemia; assay: inhibition of colony formation in soft agar (colony assay), L1210; format: cell-based; conditions: for Cytotoxicity in vitro EC90 L 1210: concentration giving 90% inhibition of colony formation, determined by graph, 6 days incubation; for activity against L 1210 cells (ranking in words): among the compounds of the table
Experimental: (§1) The effectiveness of the compounds defined in accordance with the invention was tested as to their in vitro cytotoxicity. The investigations about inhibition of colony formation in soft agar (colony assay) were carried out in conformity with the method of Hamburger and Salmon (A. W. Hamburger, S. E. Salmon, "Primary Bioassay of Human Myeloma Stem Cells", J. Clin. Invest. 60: 846-854 (1977); A. W. Hamburger and S. E. Salmon, "Primary Bioassay of Human Tumor Stem Cells", Science 197: 461-463 (1977)). The tumor cells were incubated in RPMI-1640 medium with 20% fetal calf serum and 0.3% agar in the presence of different concentrations of the test substance at 37° C., 95% relative air humidity and 5% CO2. Triple values were taken in each instance. The incubation time was 6 days for L1210 mouse leucemia and 8 days for KB human mucous-membrane carcinoma. The colonies formed (>50 cells) were subsequently counted.

[2] = test system: KB human mucous-membrane carcinoma; assay: inhibition of colony formation in soft agar (colony assay), KB; format: cell-based; conditions: for Cytotoxicity in vitro EC90 KB: concentration giving 90% inhibition of colony formation, determined by graph, 8 days incubation; for activity against KB cells (ranking in words): among the compounds of the table
Experimental: as §1

[3] = test system: small-cell bronchial carcinoma LXFS 538; assay: human tumors transplanted into the naked mouse, LXFS 538; format: in vivo; conditions: LXFS 538 xenograft, 45 mg/kg i.p. per day 1.5 and 9
Experimental: (§2) The compound H-LYS(LYS)-NHC18 H37.3HCL (D-21621) was tested separately on human tumors transplanted into the naked mouse. […] This tumor is resistant to all standard cytostatic agents.

[4] = test system: ovarian carcinoma OVXF 899; assay: human tumors transplanted into the naked mouse, OVXF 899; format: in vivo; conditions: OVXF 899 xenograft, same conditions (45 mg/kg i.p. per day 1.5 and 9)
Experimental: as §2

Compound	Cytotoxicity in vitro EC90 L 1210 [1]	Cytotoxicity in vitro EC90 KB [2]	activity against KB cells (ranking in words) [2]	tumor inhibition [3]	tumor inhibition [4]	activity against L 1210 cells (ranking in words) [1]
CCCCCCCCCCCCCCCCCCNC(=O)C(N)CCCNC(=O)C(N)CCCN.Cl.Cl.Cl [D-20 989, H--ORN(ORN)--NHC18 H37.3HCL]	3.1 µg/mL	1.3 µg/mL				
Br.Br.Br.CCCCCCCCCCCCCCCCCCNC(=O)C(N)CCCCNC(=O)C(N)CCCCN [D-20 994, H--LYS(LYS)--NHC18 H37.3HBr]	3.2 µg/mL	0.8 µg/mL	highest activity			
CCCCCCCCCCCCCCCCCCNC(=O)C(N)CCCCNC(=O)C(N)CCCCN.Cl.Cl.Cl [D-21 621, H--LYS(LYS)--NHC18 H37.3HCl]	2.2 µg/mL	1.4 µg/mL		37 % of the control	46 % of the control	
CCCCCCCCCCCCCCNC(=O)C1CSCN1 [D-21 979, H--THZ--NHC14 H29]	0.3 µg/mL	3.1 µg/mL				highest activity
CCCCCCCCCCCCCCCCNC(=O)C1CSCN1 [D-21 980, H--THZ--NHC16 H33]	3.4 µg/mL	3.1 µg/mL				
CCCCCCCCCCCCCCCCCCNC(=O)C(CCCCN)NC(=O)C(N)CCCCN [D-22 267, H--LYS--LYS--NHC18 H37]	3.1 µg/mL	0.3 µg/mL	highest activity			
CCCCCCCCCCCCCCCCCCNC(=O)[C@H](N)CCCCNC(=O)[C@H](N)CCCCN.Cl.Cl.Cl [D-22 628, H--D--LYS(D--LYS)--NHC18 H37.3HCL]	0.8 µg/mL	1.1 µg/mL				highest activity
H--LYS[(LYS)LYS]--NHC18 h37.4HBr [D-20 995]	> 3 µg/mL	0.9 µg/mL	highest activity			
H--ORN[(ORN)ORN]--NHC18 H37 4HCl [D-20 990]	> 10 µg/mL	1.7 µg/mL				
